We go through one compound from patent US20160185717A1, “COMPOUNDS WITH ANTIBACTERIAL ACTIVITY” (FUNDACIÓN MEDINA. CENTRO DE EXCELENCIA EN INVESTIGACIÓN DE …, priority 2013, published 2016).

One assay has as its system S. aureus ATCC 29213. The experiment in a line: Broth microdilution MIC. Format: cell-based, Staphylococcus aureus. The method, then:
(§1) Antibacterial activity of compounds MDN-0057, MDN-0058, MDN-0059 and MDN-0060 was evaluated using the broth microdilution methodology. This method is used to determine minimum inhibitory concentrations (MICs) which are defined as the lowest concentration of an antimicrobial compound that will inhibit the visible growth of a microorganism after overnight incubation.
(§2) In the microbroth dilution assay, microorganisms were selected by streaking bacteria culture from a cryovial into Mueller Hinton II (MHII) agar plate(s) and incubate overnight at 37° C. Thereafter, 3 to 5 characteristic fresh colonies were selected and suspended in 25 mL of MHII broth media for 2 hours shaking at 220 rpm. The 2 hour broth cultures were adjusted to an optical density of 0.111 at 660 nm and then diluted to 1:100 in order to obtain assay inoculums.
(§3) The four compounds evaluated were serially diluted in 100% DMSO with a dilution factor of 2 to provide 10 compound concentrations starting at 8 mg/mL.
(§4) For the assays, 90 μL/well of the appropriated diluted inoculum were mixed with 1.6 μL/well of each compound concentration and 8.4 μL/well of MHII broth media, resulting in an additional dilution of these compounds to yield concentrations in the assay wells from 128 μg/mL to 0.25 μg/mL. After that, the assay plates were read in a Tecan Ultraevolution spectrophotometer at 612 nm for T0 (zero time). Then, the plates were statically incubated at 37° C. for 20 hours. After incubation, they were shaken in a DPC Micromix-5 and read again for Tf (final time). Percentage of growth inhibition was calculated using the following normalization:
(§5) % Inhibition=[1-[(TfSample-T0Sample)−(TfBlank-T0blank)/(TfGrowth-T0Growth)−(TfBlank-T0blank)]×100. • Where, • T0 Sample=the absorbance of the strain growth in the presence of sample measured at zero time (before incubation). • Tf Sample=the absorbance of the strain growth in the presence of sample measured at final time (after incubation) • T0 Growth=the absorbance of the strain growth in the absence of sample measured at zero time (before incubation). • Tf Growth=the absorbance of the strain growth in the absence of sample measured at final time (after incubation). • T0 Blank=the absorbance of the broth medium (blank) measured at zero time (before incubation). • Tf Blank=the absorbance of the broth medium (blank) measured at final time (after incubation).
Background: Dilution methods test growth across graded concentrations, often in twofold steps.

The subject of the next assay is A. baumannii 2445. Kind of assay: Broth microdilution MIC. Format: cell-based, Acinetobacter baumannii. Particulars: A. baumannii 2445, ΔadeABC. The method, then:
as §1, §2, §3, §4, §5

For the next assay, the system named is A. baumannii 2446. Kind of assay: Broth microdilution MIC. Format: cell-based, Acinetobacter baumannii. As to conditions: A. baumannii 2446, ΔadeABC, ΔadellJK. The method, then: as §1, §2, §3, §4, §5
Assay [1] relates to A. baumannii ATCC BAA-747. Kind of assay: Broth microdilution MIC. Format: cell-based, Acinetobacter baumannii. Particulars: A. baumannii ATCC BAA-747, Clinical isolate. The method, then:
as §1, §2, §3, §4, §5

The next assay has as its system A. baumannii 2443. The experiment in a line: Broth microdilution MIC. As to conditions: A. baumannii 2443, Clinical isolate. Format: cell-based, Acinetobacter baumannii. How it is done: as §1, §2, §3, §4, §5
For another assay, the system named is A. baumannii 5973. The experiment in a line: Broth microdilution MIC. Format: cell-based, Acinetobacter baumannii. As to conditions: A. baumannii 5973, Clinical isolate. How it is done: as §1, §2, §3, §4, §5
The test system of another assay is A. baumannii ATCC 19606. The experiment in a line: Broth microdilution MIC. Format: cell-based, Acinetobacter baumannii. As to conditions: A. baumannii ATCC 19606, Clinical isolate. How it is done: as §1, §2, §3, §4, §5
The test system of a further assay is A. baumannii 2444. Kind of assay: Broth microdilution MIC. It counts as cell-based, Acinetobacter baumannii. As to conditions: A. baumannii 2444, ΔadellJK. How it is done:
as §1, §2, §3, §4, §5

For assay [2], the system named is lipid synthesis in E. coli acrAB::Tn903. Kind of assay: Macromolecular labeling assay, lipid synthesis. It counts as cell-based, Escherichia coli. As to conditions: at up to 8-fold the MIC, [3H] glycerol. The method, then:
The macromolecular synthesis assay, in which the inhibition of the intracellular building blocks of macromolecules are measured, provides guidance for understanding the broad MOA of compounds
The inhibitory effect on synthesis of macromolecules in the lipid, cell wall, DNA, RNA and protein synthesis pathways was determined in growing cells of E. coli acrAB::Tn903. Cells were grown at 35° C. overnight on Trypticase Soy agar, and this culture was used to inoculate 15 ml of Mueller Hinton broth II (MHB). The culture was grown to early exponential growth phase (OD600=0.2 to 0.3) while incubating in a shaker at 35° C. and 200 rpm.
Cells in early exponential phase were exposed to MDN-0057, and their incorporation of radioactive precursors in each pathway was determined. Rifampicin, Ciprofloxacin, Tetracycline, Imipenem and Irgasan were included as positive controls for inhibition of RNA, DNA, protein, cell wall and lipid synthesis, respectively. (FIG. 1)
Lipid synthesis: Bacterial cells were grown to early exponential growth phase in MHB and 100 μL was added to 1.5 mL eppendorf tubes (in triplicate) containing various concentrations of MDN-0057 or control antibiotics as described above. Following a 5 min incubation at room temperature, [3H] glycerol was added at 0.5 μCi per reaction. […] Samples were then counted via liquid scintillation counting.

For assay [3], the system named is wild type (WT) Acinetobacter baumannii (ATCC BAA-747). Kind of assay: Resistance bioassay on A. baumannii. Format: cell-based. How it is done:
The frequency of resistance to MDN-0057 and MDN-0058 was assessed on Escherichia coli acrAB::Tn903 (CB-219) and wild type (WT) Acinetobacter baumannii (ATCC BAA-747). For this purpose, the Minimum Inhibitory Concentration of MDN-0057 versus each strain was determined by broth microdilution as described in Clinical Laboratory Standards Institute publication M07-A9, Vol. 32, No. 2., “Methods for Dilution Antimicrobial Susceptibility Tests for Bacteria that Grow Aerobically; Approved Standard—Ninth Edition,” January 2012. Six-well plates containing Mueller Hinton II agar (5 mL per well) were prepared with MDN-0057 or MDN-0058 at concentrations 4-fold and 8-fold above the MIC. Cultures were grown to late log phase and spread on the agar. Plates were incubated at 37° C. and examined after one and two days of incubation.
Six to eight isolates from each species were obtained by re-streaking growth from the plates on antibiotic-free tryptic soy agar plates, and MICs of MDN-0057 versus the isolates were subsequently determined. MICs of the E. coli isolates were elevated at least 16-64-fold relative to their parent strain, CB-219.

Another assay has as its system E. coli 219. Kind of assay: Broth microdilution MIC. It counts as cell-based, Escherichia coli. As to conditions: E. coli 219, ΔAcrAB::Tn903kan. The method, then: as §1, §2, §3, §4, §5

≈ marks a conversion by molar mass, not a printed value.

In general, MIC refers to the least concentration at which growth counts as inhibited. The low end stands for inhibition by little substance, the high end for a need for much substance.

Consider `[C-]#[N+]C(=C)C(Cc1ccc(OC)cc1)([N+]#[C-])C1CC(O)CCC1OC(=O)CO` (stereo not shown) [MDN-0057], for which, in the assay with S. aureus ATCC 29213, the “MIC against S. aureus (No activity)” value is 128 µg/mL (≈ 333 µM). Further, the minimal inhibitory concentration (MIC) against S. aureus ATCC 29213 (S. aureus ATCC 29213, wild type) is above 128 µg/mL; with A. baumannii 2445 it was 2 µg/mL (≈ 5.2 µM); against A. baumannii 2446, below 0.06 µg/mL; in [1], 2 to 4 µg/mL; against A. baumannii 2443 it was 4 µg/mL (≈ 10.4 µM); with A. baumannii 5973 it was 0.25 µg/mL (≈ 0.65 µM). Further, the figures for the MIC in the assay with A. baumannii ATCC 19606, in the assay on A. baumannii 2444 and in the assay on E. coli 219 were 2 to 4 µg/mL, 0.25 µg/mL (≈ 0.65 µM) and 0.125 to 0.5 µg/mL, respectively. Besides, the “Inhibition of lipid synthesis” value in assay [2] is listed as “Little or no inhibition”. Moreover, in assay [3] (A. baumannii, 4-fold and 8-fold above the broth MIC, after 24 hours of incubation), the “Growth on agar containing compound (frequency of resistance)” value is reported as “a lawn of colonies was apparent”. Besides, the “MICs of the A. baumannii isolates compared with parent strain A. baumannii BAA-747” value in assay [3] (six to eight isolates re-streaked from the plates) is on record as “not significantly different”.
